Measurements published in patent US6750224B1, “Antibacterial optically pure benzoquinolizine carboxylic acids, processes, compositions and methods of treatment” (priority 1999, dated 2004).
Values after ≈ are worked out from the molar mass of the structure shown. Each block holds one molecule with its values, some of them ahead of it.

Tests used:
[1] = Phlebitis on repeated i.v. administration in rats; type: in vivo; conditions: doses double those of the sodium salt
Excerpt: This feature would make S-(−)-9-fluoro-6,7-dihydro-8-(4-hydroxypiperidin-1-yl)-5-methyl-1-oxo-1H,5H- benzo[i,j]quinolizine-2-carboxylic acid arginine salt 0.25 H2O and S-(−)-9-fluoro-6,7-dihydro-8-[4-(hydroxy)-1-piperidin-1-yl)-5-methyl-1-oxo-1H,5H-benzo[i,j]quinolizine-2-carboxylic acid arginine salt 0.75 H2O suitable for long term i.v. administration which is commonly undertaken for critically ill patients or patients in intensive care unit.

[2] = test system: S.aureus strain bearing Nor A efflux pump; type: cell-based; conditions: Nor A efflux pump strain vs strain devoid of efflux pump
Protocol: Using this set of MIC values, % loss in potency due to efflux was calculated for each of the fluoroquinolone in Table 5

[3] = test system: Mupirocin-resistant Staph STA-34; assay: In-vitro antimicrobial activity test (MIC, NCCLS); type: cell-based, Staphylococcus aureus
Excerpt: (§1) The test method was in accordance with the standard NCCLS protocol.

MRSA STA-4 = assay: In-vitro antimicrobial activity test (MIC, NCCLS); type: cell-based, Staphylococcus aureus
Excerpt: as §1

[4] = test system: Staphylococcus aureus ATCC 25923; assay: In-vitro antimicrobial activity test (MIC, NCCLS); type: cell-based
Excerpt: as §1

[5] = test system: Chryseobacterium meningosepticum; assay: In-vitro antimicrobial activity test (MIC, NCCLS); type: cell-based
Excerpt: as §1

[6] = test system: Enterococcus faecalis ATCC 29212; assay: In-vitro antimicrobial activity test (MIC, NCCLS); type: cell-based
Excerpt: as §1

Propioni bacterium acnes = assay: In-vitro antimicrobial activity test (MIC, NCCLS); type: cell-based
Excerpt: as §1

Mycobacterium avium = assay: In-vitro antimicrobial activity test (MIC, NCCLS); type: cell-based
Excerpt: as §1

Enterococcus faecium = assay: In-vitro antimicrobial activity test (MIC, NCCLS); type: cell-based
Excerpt: as §1

[7] = test system: Escherichia coli ATCC 25922; assay: In-vitro antimicrobial activity test (MIC, NCCLS); type: cell-based
Excerpt: as §1

[8] = test system: Mycobacterium tuberculosis ATCC 27294; assay: In-vitro antimicrobial activity test (MIC, NCCLS); type: cell-based
Excerpt: as §1

Bacteroides fragilis = assay: In-vitro antimicrobial activity test (MIC, NCCLS); type: cell-based
Excerpt: as §1

[9] = test system: Mycobacterium intracellulare; assay: In-vitro antimicrobial activity test (MIC, NCCLS); type: cell-based
Excerpt: as §1

Serratia marcescens = assay: In-vitro antimicrobial activity test (MIC, NCCLS); type: cell-based
Excerpt: as §1

Haemophilus influenzae = assay: In-vitro antimicrobial activity test (MIC, NCCLS); type: cell-based
Excerpt: as §1

Streptococcus pyogenes = assay: In-vitro antimicrobial activity test (MIC, NCCLS); type: cell-based
Excerpt: as §1

[10] = test system: Viridans group Streptococci; assay: In-vitro antimicrobial activity test (MIC, NCCLS); type: cell-based
Excerpt: as §1

Pseudomonas aeruginosa = assay: In-vitro antimicrobial activity test (MIC, NCCLS); type: cell-based
Excerpt: as §1

Corynebacterium jeikeium = assay: In-vitro antimicrobial activity test (MIC, NCCLS); type: cell-based
Excerpt: as §1

[11] = test system: Streptococcus pneumoniae ATCC 6303; assay: In-vitro antimicrobial activity test (MIC, NCCLS); type: cell-based
Excerpt: as §1

P. vulgaris 66 = assay: Effect of pH on potency of fluoroquinolones (MIC at pH 5.5 and 7.0); type: cell-based; conditions: MIC pH 7 vs pH 5.5
Excerpt: (§2) The test method was in accordance with the standard NCCLS protocol employing test media adjusted at pH 5.5 and 7.0.

E. coli 2015 = assay: as above; type: cell-based; conditions: MIC pH 7 vs pH 5.5
Excerpt: as §2

P. rettgeri N 1764 = assay: as above; type: cell-based; conditions: MIC pH 7 vs pH 5.5
Excerpt: as §2

P. mirabilis 37 = assay: as above; type: cell-based; conditions: MIC pH 7 vs pH 5.5
Excerpt: as §2

Acinetobacter 3109 = assay: as above; type: cell-based; conditions: MIC pH 7 vs pH 5.5
Excerpt: as §2

S. aureus 1199-B = assay: as above; type: cell-based; conditions: MIC pH 7 vs pH 5.5
Excerpt: as §2

Klebsiella 24037 = assay: as above; type: cell-based; conditions: MIC pH 7 vs pH 5.5
Excerpt: as §2

E. coli 25922 = assay: as above; type: cell-based; conditions: MIC pH 7 vs pH 5.5
Excerpt: as §2

Ps. Aeruginosa = assay: as above; type: cell-based; conditions: MIC pH 7 vs pH 5.5
Excerpt: as §2

S. aureus 25923 = assay: as above; type: cell-based; conditions: MIC pH 7 vs pH 5.5
Excerpt: as §2

E. faecalis = assay: as above; type: cell-based; conditions: MIC pH 7 vs pH 5.5
Excerpt: as §2

Serratia marcescens 2702 = assay: as above; type: cell-based; conditions: MIC pH 7 vs pH 5.5
Excerpt: as §2

MRSE STE-22 = assay: In-vitro antimicrobial activity test (MIC, NCCLS); type: cell-based, Staphylococcus epidermidis
Excerpt: as §1

Phototoxicity studies = conditions: in vivo

SMILES: C[C@H]1CCc2c(N3CCC(O)CC3)c(F)cc3c(=O)c(C(=O)O)cn1c23.N=C(N)NCCC[C@H](N)C(=O)O.O [Example 7, S-(−)-9-fluoro-6,7-dihydro-8-(4-hydroxypiperidin-1-yl)-5-methyl-1-oxo-1H,5H-benzo[i,j]quinolizine-2-carboxylic acid, arginine salt 0.25 H2O]
phlebitis [1]: did not cause phlebitis

SMILES: COc1c(N2CCNC(C)C2)c(F)cc2c(=O)c(C(=O)O)cn(C3CC3)c12 (stereo not drawn) [Gatifloxacin]
% loss in potency for S. aureus bearing Efflux pump [2]: 75%

SMILES: CO/N=C1\CN(c2nc3c(cc2F)c(=O)c(C(=O)O)cn3C2CC2)CC1CN (stereo not drawn) [Gemifloxacin]
% loss in potency for S. aureus bearing Efflux pump [2]: 75%

SMILES: C[C@H]1COc2c(N3CCN(C)CC3)c(F)cc3c(=O)c(C(=O)O)cn1c23 [Levofloxacin]
MIC [3]: 12.5 µg/mL (≈ 34.6 µM)
MIC (MRSA STA-4): > 12.5 µg/mL
MIC [4]: 0.2 µg/mL (≈ 0.553 µM)
MIC [5]: 6.25 µg/mL (≈ 17.3 µM)
MIC [6]: 0.8 µg/mL (≈ 2.21 µM)
MIC (Propioni bacterium acnes): 1 µg/mL (≈ 2.77 µM)
MIC (Mycobacterium avium): 12.5 µg/mL (≈ 34.6 µM)
MIC (Enterococcus faecium): 1.56 µg/mL (≈ 4.32 µM)
MIC [7]: 0.05 µg/mL (≈ 0.138 µM)
MIC [8]: 0.4 µg/mL (≈ 1.11 µM)
MIC (Bacteroides fragilis): 6.25 µg/mL (≈ 17.3 µM)
MIC [9]: 0.8 µg/mL (≈ 2.21 µM)
MIC (Serratia marcescens): 0.1 µg/mL (≈ 0.277 µM)
MIC (Haemophilus influenzae): 0.03 µg/mL (≈ 0.083 µM)
MIC (Streptococcus pyogenes): 0.4 µg/mL (≈ 1.11 µM)
MIC [10]: 1.56 µg/mL (≈ 4.32 µM)
MIC (Pseudomonas aeruginosa): 3.12 µg/mL (≈ 8.63 µM)
MIC (Corynebacterium jeikeium): 0.4 µg/mL (≈ 1.11 µM)
MIC [11]: 0.8 µg/mL (≈ 2.21 µM)
% change in potency at pH 5.5, loss (−)/gain (+) (P. vulgaris 66): −94%
% change in potency at pH 5.5, loss (−)/gain (+) (E. coli 2015): −87.5%
% change in potency at pH 5.5, loss (−)/gain (+) (P. rettgeri N 1764): −94%
% change in potency at pH 5.5, loss (−)/gain (+) (P. mirabilis 37): −94%
% change in potency at pH 5.5, loss (−)/gain (+) (Acinetobacter 3109): −94%
% change in potency at pH 5.5, loss (−)/gain (+) (S. aureus 1199-B): −75%
% change in potency at pH 5.5, loss (−)/gain (+) (Klebsiella 24037): −94%
% change in potency at pH 5.5, loss (−)/gain (+) (E. coli 25922): −96%
% change in potency at pH 5.5, loss (−)/gain (+) (Ps. Aeruginosa): −50%
% change in potency at pH 5.5, loss (−)/gain (+) (S. aureus 25923): −75%
% change in potency at pH 5.5, loss (−)/gain (+) (E. faecalis): −75%
% change in potency at pH 5.5, loss (−)/gain (+) (Serratia marcescens 2702): −98%
MIC (MRSE STE-22): > 12.5 µg/mL

MIC [3]: > 400 µg/mL
MIC (MRSA STA-4): 0.4 µg/mL (≈ 0.799 µM)
MIC [4]: 0.4 µg/mL (≈ 0.799 µM)
MIC [6]: > 12.5 µg/mL
MIC (Propioni bacterium acnes): > 1000 µg/mL
MIC (Enterococcus faecium): > 0.8 µg/mL
MIC (Streptococcus pyogenes): 0.025 µg/mL (≈ 0.0499 µM)
MIC [10]: 0.2 µg/mL (≈ 0.399 µM)
MIC (Corynebacterium jeikeium): > 12.5 µg/mL
MIC [11]: 0.2 µg/mL (≈ 0.399 µM)
MIC (MRSE STE-22): 0.2 µg/mL (≈ 0.399 µM)
SMILES: C/C(=C\C(=O)OCCCCCCCCC(=O)O)C[C@@H]1OC[C@H](C[C@@H]2O[C@H]2[C@@H](C)[C@H](C)O)[C@@H](O)[C@H]1O [Mupirocin]

SMILES: CCn1cc(C(=O)O)c(=O)c2cc(F)c(N3CCNCC3)cc21 [Norfloxacin]
% loss in potency for S. aureus bearing Efflux pump [2]: 97%

SMILES: C[C@@H]1CN(c2c(F)c(N)c3c(=O)c(C(=O)O)cn(C4CC4)c3c2F)C[C@H](C)N1 [Sparfloxacin]
phototoxic dosage, times lower than S-(−)-Nadifloxacin (Phototoxicity studies): 25 times
